The nature of data set [1]: Hygroscopicity experiment (dynamic vapor sorption). The note with it: relative humidity of 80%, criterion of hygroscopic weight gain. Type of data set: physicochemical. The protocol:
The description of the hygroscopic characteristics and the definition of the hygroscopic weight gain (Appendix 9103 of Chinese Pharmacopoeia 2020 Edition, Guidelines for Drug Hygroscopicity Tests, experimental conditions: 25° C.±1° C., 80%+2% relative humidity) are described in the table below:
The hygroscopicity of the present invention is measured using the DVS INT-Std dynamic moisture and gas adsorption analyzer of the Surface Measurement Systems Company in UK. The humidity test range was 0%-95%, the air flow was 200 mL/min, the temperature was 25° C., test point: take one test point per […] 5% humidity.
An appropriate amount of the test sample was taken and the hygroscopicity of the test sample was tested by dynamic moisture adsorption device. It can be seen from FIG. 4 that the weight gain of the crystal form J according to the present invention is more than 0.2% but less than 2% after equilibrium under the condition of a relative humidity of 80%. […] Therefore, the crystal form J of the invention is not susceptible to deliquescent under the influence of high humidity, which is convenient for the long-term storage of the medicine.

Data set [2] is described as follows: Pharmacokinetic experiment, oral capsules in Beagle dogs. It is filed as in vivo. The note with it: dog, plasma, male Beagle dogs, 5 mg/kg. The procedure: The crystal form of the compound having Formula (I) was filled into capsules, which were used for oral administration.
Three male Beagle dogs weighing 8-12 kg were orally administered with capsules containing the test sample at a dose of 5 mg/kg, and blood samples were taken at time points of 0.25 h, 0.5 h, 1.0 h, 2.0 h, 4.0 h, 6.0 h, 8.0 h and 24 h. Standard curve was plotted based on concentrations of the samples in a suitable range, the concentration of the test sample in the plasma sample was measured and quantified by AB SCIEX API4000 LC-MS/MS at MRM mode. Pharmacokinetic parameters were calculated according to drug concentration-time curve using a noncompartmental method by WinNonLin 6.3 software.

Data set [3] can be described thus: Stability experiment (high-temperature, high-humidity, photostability). It is filed as physicochemical. The protocol: (1) High-temperature test: A batch of the test sample was taken and put into a flat weighing bottle, divided into ≤5 mm thick thin layer. The sample was placed at 60° C. for 30 days. The sample was then sampled at day 5, day 13 and day 30, and the change of the sample's color was observed. The purity of the sample was detected by HPLC.
(2) High-humidity test: A batch of the test sample was taken and put into a flat weighing bottle, divided into ≤5 mm thick thin layer. The sample was placed at 25° C. and RH for 90%±5% for 30 days. The sample wad sampled at day 5, day 13 and day 30, and the change of the sample's color was observed. The purity of the sample was detected by HPLC.
(3) Photostability test: A batch of the test sample was taken into a flat weighing bottle, divided into ≤5 mm thick thin layer. The sample was placed in an opened light box (with UV) at the illuminance 4500+5001x, UV light ≥0.7w/m2 for 30 days. The sample was then sampled at day 5, day 13 and day 30, and the change of the sample's color was observed. The purity of the sample was detected by HPLC.

For `O=C(O)c1ccc2c(c1)Oc1ccc(OCc3c(-c4c(Cl)cccc4Cl)noc3C3CC3)nc1C1(CC1)C2` [crystal form J, 2-((5-cyclopropyl-3-(2,6-dichlorophenyl)isoxazol-4-yl)methoxy)-10H-spiro[benzo[6,7]oxepino[3,2-b]pyridine-11,1′-cyclopropane]-7-carboxylic acid], in data set [1], the hygroscopic characteristics result is on record as “lightly hygroscopic”. Further, in data set [2], the AUC(0-t) – broadly, exposure summed from dosing to a finite time, without extrapolation to infinity – worked out at 885 ng·h/mL; the concentration peaked (Cmax) at 554 ng/mL; the Tmax – broadly, the time from dosing to the highest level – worked out at 40 min. For the same compound, the “change in appearance and chemical purity (HPLC)” value in data set [3] (60° C., 25° C. and RH 90%±5%, light box with UV, 30 days, sampled at day 5, 13, 30) was “no obvious changes in the appearance and chemical purity”. Further, the crystal structure stability entry in data set [3] (high temperature, high humidity and/or lighting conditions) is reported as “remains basically unchanged”.
